From US20050215498A1, “Method for the protection of endothelial and epithclial cells during chemotherapy” (priority 2002, published 2005)
Read-outs that look alike come from different tables or passages of the source.

Legend:
[1] = manufacturers's instructions, cited from earlier work
[2] = test system: PBMC from normal human blood donors; experiment: Apoptosis assay (SSC-image) with PBMC; type: cell-based
Description: (§1) F-Ara: 10 μg/mL. D: 100 μg/mL. A: Propidium iodide staining of primary acute myeloid leukemia (AML) cells derived from a patient in blast crisis (70% blasts of total PBMC count). Results are given in mean % vitality of three independent experiments. *: p=0.008 of Control- versus F-Ara-treated AML cells. B: Flow cytometric analysis of the SSC-image of PI-negative PBMC. Shown is one representative out of five independent experiments with different blood donors.
An established method for detecting apoptosis in human endothelial cells was performed as previously described^20 using flow cytometry (FACScan™ and CellQuest™ software, Becton Dickinson, Heidelberg, Germany). Endothelial and epithelial cells were either left untreated or incubated with F-Ara in descending concentrations (range: 10 μg/mL to 0.1 μg/mL) in the presence or absence of Defibrotide for 48 hours. Afterwards, cells were washed in PBS/10% FCS and stained with the necrosis detecting dye propidium iodide (PI, 0.2 μg/mL, Sigma, Deisenhofen, Germany). Apoptotic cells were identified by a PI-negative staining and by a characteristic side scatter image distinct from that of non-apoptotic cells. At least three experiments per cell type have been performed. […]

[3] = test system: HMEC as target cells for allogeneic CTL; experiment: 51Cr release assay, lysis of HMEC by allogeneic PBMC / CD8+ CTL; type: cell-based, human
Description: Peripheral blood mononuclear cells (PBMC) were derived from heparinized (Novo Nordisk, Mainz, Germany) blood of healthy human volunteers or buffy coats from the Bavarian Red Cross according to a standard protocol using Ficoll hypaque (Pharmacia, Freiburg, Germany) density gradient centrifugation. Cells were then stimulated in a ratio of 1:1 and 2:1 with irradiated (20 Gy) HMEC for 7 days in the presence of Interleukin 2 (50 U/mL) and 10% human AB serum (Sigma, Deisenhofen, Germany). Alternatively, PBMC were selected for CD8+ T cells and natural killer (NK) cells using cell isolation kits according to the manufactuer's instructions (MACS™, Miltenyi Bio-tech, Bergisch-Gladbach, Germany) based on the deletion of non CD8+ and non NK cells, respectively. Stimulation of the selected cells was identical to that of whole PBMC cultures, except for NK cells which were stimulated for only 3 days.
T cell- or NK-cell mediated cytotoxicity was assessed according to a well established protocol,^23 using a 4h ^51Cr radioisotope assay. HMEC that had either been left untreated or incubated with F-Ara (10μg/mL) overnight were used as target cells, to be labeled 0.4 mCi Na2^51CrO4 for 2 hours. After 3 washing steps, target cells were adjusted to 10^4 cells/mL and coincubated with PBMC, CD8+ or NK effector cells at descending effector to target ratios for another 4 hours. Supernatants were transfered to dry scintillation plates and counted in a γ-counter (all from Canberra Packard, Darmstadt, Germany). Autologous (effector) B-Lymphoblastoid cell lines (B-LCL) and K562 as NK sensitive cells were taken as additional control targets. The percentage of specific lysis was calculated as: [(experimental release−spontaneous release)/(maximal release−spontaneous release)]×100. Spontaneous release in all experiments was always below 20%. […]

[4] = test system: human microvascular endothelial cells (HMEC); type: cell-based
Description: All cell culture reagents have been purchased by Gibco BRL (Karlsruhe, Germany) unless stated otherwise. 2-Fluoroadenine 9-beta-D-arabinofuranoside (F-Ara) was obtained from Sigma, Deisenhofen, Germany, Defibrotide vials were obtained from Prociclide™, Crinos, Como, Italy.
(§2) An established method for detecting apoptosis in human endothelial cells was performed as previously described^20 using flow cytometry (FACScan™ and CellQuest™ software, Becton Dickinson, Heidelberg, Germany). Endothelial and epithelial cells were either left untreated or incubated with F-Ara in descending concentrations (range: 10 μg/mL to 0.1 μg/mL) in the presence or absence of Defibrotide for 48 hours. Afterwards, cells were washed in PBS/10% FCS and stained with the necrosis detecting dye propidium iodide (PI, 0.2 μg/mL, Sigma, Deisenhofen, Germany). Apoptotic cells were identified by a PI-negative staining and by a characteristic side scatter image distinct from that of non-apoptotic cells. At least three experiments per cell type have been performed.
An alternative method for the detection of apoptosis used microscopic analysis of DNA fluorescence labeled cells. 1×10 ^5/plate endothelial cells were seeded in 35 mm petri dishes (Nunc, Wiesbaden, Germany). These cells were treated as given above and subsequently fixed with Methanol/Acetone (1:1) for 2 minutes, washed once in PBS and stained with 4,6-Diamidino-2-phenylindole (DAPI) (0.5 μg/mL, Sigma, Deisenhofen, Germany), dissolved in 20% Glycerin/PBS. Samples were mounted and subjected to microscopic analysis.
In order to assess the influence of F-Ara on the viability of cultured human endothelial cells, HMEC were incubated with descending pharmacologically relevant concentrations (10 μg/mL to 0.1 μg/mL) of 2-Fluoroadenine 9-beta-D-arabinofuranoside as the metabolized form of fludarabine. […] After 48 hours of incubation HMEC were subjected to apoptosis assays using the detection of cellular granularity of propidium iodide negative cells (side scatter (SSC) image in flow cytometry) and microscopic analyses of DAPI-stained cells, respectively.
In order to exclude unspecific artifical extracellular interaction of F-Ara and Defibrotide in vitro HMEC were pretreated with Defibrotide for 1 hour and subsequently, after 3 washing steps, incubated with F-Ara for another 48 hours and vice versa.

endothelial cells = experiment: Radiation induced endothelial cell death; type: cell-based; settings: data not shown
Description: Since in many pre-transplant protocols fludarabine is used in combination with ionizing radiation it was important to test whether these two compounds would cooperate in affecting endothelial cells.

[5] = test system: A549 alveolar epithelial cells; experiment: Flow cytometric apoptosis analysis in A549; type: cell-based, human; settings: Defibrotide alone, data not shown
Description: as §2
(§3) An alternative method for the detection of apoptosis used microscopic analysis of DNA fluorescence labeled cells. 1×10 ^5/plate endothelial cells were seeded in 35 mm petri dishes (Nunc, Wiesbaden, Germany). These cells were treated as given above and subsequently fixed with Methanol/Acetone (1:1) for 2 minutes, washed once in PBS and stained with 4,6-Diamidino-2-phenylindole (DAPI) (0.5 μg/mL, Sigma, Deisenhofen, Germany), dissolved in 20% Glycerin/PBS. […]
(§4) Skin, the gastrointestinal tract (GIT) and most likely the lung are among the primary targets of GvHD. […] Again, the protective potential of Defibrotide (100 μg/mL) was assessed.

[6] = test system: primary acute myeloid leukemia (AML) cells; experiment: Propidium iodide staining (vitality) of primary AML cells; type: cell-based, human; settings: 48 hours
Description: as §1
Next to its desirable protective capacity for endothelial and epithelial cells against F-Ara induced apoptosis it was important to investigate whether Defibrotide would also interfere with the anti-leukaemic properties of F-Ara. To address this question, primary peripheral blood derived acute myeloid leukaemic (AML) cells with a blast amount of 70% were thawed, kept in culture for 24 hours and subsequently treated with F-Ara in the presence or absence of Defibrotide for another 48 hours. […] However, F-Ara induced cell death in up to 80% of the cells. […] This could be observed after as early as 24 hours of incubation. […] We next asked whether Defibrotide might modulate the effect of F-Ara against normal haematopoetic cells and performed apoptosis assays (SSC-image) with PBMC from normal human blood donors. […]

[7] = test system: HaCaT human keratinocyte cell line; experiment: Flow cytometric apoptosis analysis in HaCaT; type: cell-based; settings: Defibrotide alone, data not shown
Description: as §2, §3, §4

[8] = test system: ICAM-1 expression on HMEC; experiment: Flow cytometric analysis of ICAM-1 expression on HMEC; type: cell-based, human
Description: (§5) Cell surface expression of ICAM-1 (Becton Dickinson/Pharmingen, Heidelberg, Germany) and MHC class I (w6/32, hybridoma supernatant, ATCC, Manassas, Va., USA) molecules on HMEC was assessed by the indirect immunofluorescence technique and subsequent flow cytometry using the FACScan™ flow cytometer and the Cell-Quest™ analysis program (Becton Dickinson, Heidelberg, Germany). Endothelial cells were treated as given and after incubation harvested with trypsin/EDTA (Gibco), washed once in cold PBS/10% FCS and incubated 1 hour on ice with 5 μg/mL of anti-adhesion molecule MoAbs. Cells were washed again and incubated with a goat anti-mouse IgG-FITC conjugated antibody F(ab)2 fragment (Dako, Hamburg, Germany) for 45 minutes on ice. Cells were then washed in PBS/10% FCS and subjected to analysis. Viability of the cells was determined by concurrent propidium iodide (0.2 μg/mL, Sigma, Deisenhofen, Germany) staining. Omitting of the first antibody served as a negative control to detect unspecific fluorescence.
Based on previous observations that pretransplant conditioning not only damages, but also leads to proinflammatory activation of endothelial cells in terms of adhesion molecule induction,^15 we next investigated the expression of ICAM-1 under the influence of F-Ara. […] We next asked whether Defibrotide would also be functional as an antagonist of F-Ara in this experimental setting. HMEC were treated with F-Ara as given and incubated in the presence or absence of descending concentrations of Defibrotide.

[9] = test system: MHC class I molecules on HMEC; experiment: Flow cytometric analysis of MHC class I on HMEC; type: cell-based, human; settings: for induction of mean fluorescence intensity of MHC class I: 24 hours
Description: as §5
(§6) Since a proinflammatory activation of target cells is often associated with increased expression of major histocompatibility antigens (MHC) class I and II, we did further flow cytometric analyses for these antigens after incubation with F-Ara in various concentrations for 24 hours.

[10] = test system: BEAS-2B bronchial epithelial cell line and primary bronchial epithelial cells; experiment: Flow cytometric apoptosis analysis in bronchial epithelial cells; type: cell-based; settings: F-Ara 10 μg/mL, 48 hours
Description: as §2
(§7) Skin, the gastrointestinal tract (GIT) and most likely the lung are among the primary targets of GvHD. Therefore, it was reasonable to test the influence of F-Ara on cell lines derived from these organs. Cells from keratinocyte (HaCaT), GIT (SW 480), alveolar (A549) and bronchial epithelial (BEAS-2B) cell lines as well as primary bronchial epithelial cells were incubated with F-Ara (10 μg/mL) as given for FIGS. 1 and 2 and assayed in flow cytometric apoptosis analyses 48 hours post treatment. […] Again, the protective potential of Defibrotide (100 μg/mL) was assessed.

[11] = test system: SW 480 gut epithelial cell line; experiment: Flow cytometric apoptosis analysis in SW 480; type: cell-based; settings: F-Ara 10 μg/mL, 48 hours
Description: as §2, §7

MHC class II on HMEC = settings: F-Ara various concentrations, 24 hours, data not shown
Description: as §5, §6

[12] = test system: HMEC as target cells for allogeneic NK cells; experiment: 51Cr release assay, lysis of HMEC by allogeneic NK cells; type: cell-based, human; settings: F-Ara 10 μg/mL, 24 hours
Description: T cell- or NK-cell mediated cytotoxicity was assessed according to a well established protocol,^23 using a 4h ^51Cr radioisotope assay. HMEC that had either been left untreated or incubated with F-Ara (10μg/mL) overnight were used as target cells, to be labeled 0.4 mCi Na2^51CrO4 for 2 hours. After 3 washing steps, target cells were adjusted to 10^4 cells/mL and coincubated with PBMC, CD8+ or NK effector cells at descending effector to target ratios for another 4 hours. Supernatants were transfered to dry scintillation plates and counted in a γ-counter (all from Canberra Packard, Darmstadt, Germany). […] The percentage of specific lysis was calculated as: [(experimental release−spontaneous release)/(maximal release−spontaneous release)]×100.

Compound: Nc1nc(F)nc2c1ncn2[C@@H]1O[C@H](COP(=O)(O)OP(=O)(O)OP(=O)(O)O)[C@@H](O)[C@@H]1O [fludarabine triphosphate]
- median intracellular level in target cells ([1]; concentration representing 20 μM): 5.8 µg/mL
- median intracellular level in target cells [1]: 20 µM

Compound: Defibrotide
- % apoptotic cells ([2]; F-Ara 10 μg/mL with Defibrotide 100 μg/mL): 43.1%
- specific lysis of HMEC by CD8+ CTL ([3]; pretreatment of target HMEC with F-Ara and Defibrotide (F-Ara+D)): downregulated specific lysis even below control levels
- protection of F-Ara induced cell death ([4]; Defibrotide 100 to 0.1 μg/mL with F-Ara 10 μg/mL, 48 hours): dose-dependent protection
- endothelial cell viability ([4]; Defibrotide alone, 48 hours): did not influence endothelial cell viability
- protection from F-Ara induced apoptosis ([4]; pretreatment with Defibrotide 1 hour, washing, then F-Ara 48 hours): sufficient to protect cells
- endothelial programmed cell death ([4]; pretreatment with F-Ara 1 hour, subsequent incubation with Defibrotide): did not lead to endothelial programmed cell death
- protection against radiation induced endothelial cell damage (endothelial cells): not protective
- number of apoptotic cells [5]: did not influence the number of apoptotic cells
- protection of AML cells from F-Ara mediated toxicity ([6]; Defibrotide 100 μg/mL with F-Ara 10 μg/mL): not able to protect
- number of apoptotic cells [7]: did not influence the number of apoptotic cells
- F-Ara induced ICAM-1 expression ([8]; Defibrotide 100 μg/mL and 10 μg/mL with F-Ara 10 μg/mL): antagonized
- ICAM-1 expression ([8]; Defibrotide alone, every concentration tested, data not shown): remained unchanged
- MHC class I molecules, F-Ara versus F-Ara+D treated HMEC ([9]; data not shown): significant downregulation

Compound: Nc1nc(F)nc2c1ncn2[C@@H]1O[C@H](CO)[C@@H](O)[C@@H]1O [F-Ara, 2-fluoro-9-β-D-arabinofuranosyladenine]
- apoptosis induction [10]: resistant
- apoptosis induction [11]: resistant
- % apoptotic cells ([2]; F-Ara 10 μg/mL, untreated control 5.1%): 40.1%
- lysis of F-Ara-treated HMEC by CD8+ CTL versus control HMEC ([3]; CD8+ selected effectors): significantly higher
- antigenicity of HMEC towards allogeneic PBMC ([3]; F-Ara (1 μg/mL) treated targets, all E/T ratios tested): increased the antigenicity
- MHC class II expression (MHC class II on HMEC): remained unchanged
- apoptosis in HMEC ([4]; F-Ara 1 μg/mL, 48 hours): no longer effective
- apoptosis in HMEC ([4]; F-Ara 10 and 5 μg/mL, 48 hours): causes apoptosis
- apoptosis in HMEC ([4]; after 24h, data not shown): already detectable
- enhancement of radiation induced cell death (endothelial cells; combination with ionizing radiation): could not find any enhancement
- cell death of AML cells ([6]; F-Ara 10 μg/mL, almost 50% died spontaneously): up to 80%
- concentrations effective in inducing ICAM-1 ([8]; 24 hours): ≥ 1 µg/mL
- ICAM-1 expression on HMEC ([8]; F-Ara, 24 hours of incubation): significantly enhances expression
- induction of mean fluorescence intensity of MHC class I ([9]; F-Ara 5 μg/mL): 1.3 fold
- induction of mean fluorescence intensity of MHC class I ([9]; F-Ara 10 μg/mL): 1.5 fold
- allogenicity of HMEC towards NK cells [12]: significantly downregulated
